From ChEMBL document CHEMBL1144833, “Synthesis and evaluation of novel aromatic substrates and competitive inhibitors of GABA aminotransferase” (Bioorg Med Chem Lett, 2008)

Experiments:
[1] = target: T1, 4-aminobutyrate aminotransferase, mitochondrial (Homo sapiens, UniProt P80404); experiment: Activity at GABA-AT assessed as substrate activity relative to gamma amino butyric acid; design: concentration or dose not given beside the values
[2] = target: T1, 4-aminobutyrate aminotransferase, mitochondrial; experiment: Inhibition of GABA-AT

T1 sequence (P80404 whole entry): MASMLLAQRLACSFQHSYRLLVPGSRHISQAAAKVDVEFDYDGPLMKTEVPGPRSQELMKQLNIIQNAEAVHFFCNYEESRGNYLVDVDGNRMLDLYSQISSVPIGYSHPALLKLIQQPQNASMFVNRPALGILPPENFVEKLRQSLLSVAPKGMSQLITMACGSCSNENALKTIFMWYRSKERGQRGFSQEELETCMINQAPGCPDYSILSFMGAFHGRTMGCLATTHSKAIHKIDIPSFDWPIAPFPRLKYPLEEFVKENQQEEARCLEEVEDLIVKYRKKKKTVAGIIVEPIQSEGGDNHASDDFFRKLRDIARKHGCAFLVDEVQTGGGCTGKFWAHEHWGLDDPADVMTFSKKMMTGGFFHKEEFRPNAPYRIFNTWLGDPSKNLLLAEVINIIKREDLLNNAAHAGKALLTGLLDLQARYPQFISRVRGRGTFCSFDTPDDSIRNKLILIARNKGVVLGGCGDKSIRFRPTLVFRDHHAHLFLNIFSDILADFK

Compound | Relative stimulatory activity [1] [%] | IC50 [2] [mM]
NCc1ccccc1C(=O)O | 0 | > 5
Nc1cccc(C(=O)O)c1 [3-AMINOBENZOIC ACID] | 0 | > 5
Nc1ccccc1C(=O)O [ANTHRANILIC ACID] | 0 | > 5
NCc1cccc(CC(=O)O)c1 | 0.78 | > 5

Results, then the molecule that gave them:

Relative stimulatory activity [1] [%] | IC50 [2] [mM] | Compound
3.42 | > 5 | NCc1cccc(C(=O)O)c1
5.65 | > 5 | NCc1ccccc1CC(=O)O
0 | > 5 | Nc1cccc(CC(=O)O)c1
